Reference: patent publication US20260274856A1, “COVALENT CEREBLON LIGANDS” (C4 THERAPEUTICS, INC., priority 2023, published 2026)
Read-outs that look alike come from different tables or passages of the source.

Target: mutant BRAF V600E (Homo sapiens, UniProt P15056, V600E)
Test: BRAF V600E HiBiT Degradation Assay in A375.10 cells
Conditions: for HiBIT-Degradation A375.10 BRAF 24 hours IP nM / DC50 / HiBIT-Degradation A375.10 BRAF 2 hours IP nM: A375.10 cells; for HiBIT-Degradation A375.10 BRAF 24 hours IP nM / HiBIT-Degradation A375.10 BRAF 2 hours IP nM: inflection point of the dose-response curve
[1] = read-out: HiBIT-Degradation A375.10 BRAF 24 hours DC50 nM, 24 hours
[2] = read-out: HiBIT-Degradation A375.10 BRAF 24 hours Emax
[3] = read-out: HIBIT-Degradation A375.10 BRAF 2 hours DC50 nM, 2 hours
[4] = read-out: HiBIT-Degradation A375.10 BRAF 2 hours Emax

mutant BRAF V600E, sequence (P15056 whole entry V600E): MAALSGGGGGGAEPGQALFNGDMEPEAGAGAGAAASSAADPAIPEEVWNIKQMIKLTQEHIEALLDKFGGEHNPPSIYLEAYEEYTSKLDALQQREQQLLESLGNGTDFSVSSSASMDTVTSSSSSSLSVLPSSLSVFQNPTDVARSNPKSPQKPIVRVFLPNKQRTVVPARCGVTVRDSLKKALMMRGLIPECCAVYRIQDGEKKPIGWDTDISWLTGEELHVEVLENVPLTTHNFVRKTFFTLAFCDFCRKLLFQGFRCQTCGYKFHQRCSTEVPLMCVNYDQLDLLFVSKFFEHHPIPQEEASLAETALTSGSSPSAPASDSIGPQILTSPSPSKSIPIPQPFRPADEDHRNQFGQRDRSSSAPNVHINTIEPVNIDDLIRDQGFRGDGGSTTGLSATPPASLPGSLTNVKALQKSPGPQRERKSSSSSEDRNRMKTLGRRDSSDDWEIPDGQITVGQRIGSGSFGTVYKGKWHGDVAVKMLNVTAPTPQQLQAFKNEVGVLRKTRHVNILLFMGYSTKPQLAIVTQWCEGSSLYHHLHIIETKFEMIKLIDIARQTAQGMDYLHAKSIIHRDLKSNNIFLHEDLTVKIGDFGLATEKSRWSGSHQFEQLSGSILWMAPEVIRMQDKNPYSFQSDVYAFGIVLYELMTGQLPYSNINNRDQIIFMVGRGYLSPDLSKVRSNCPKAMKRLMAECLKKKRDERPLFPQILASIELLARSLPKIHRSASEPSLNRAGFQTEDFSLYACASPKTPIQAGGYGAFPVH
Procedure: Compounds of this invention were tested for degradation of mutant BRAF V600E using the HiBiT assay, a luminescence-based assay for quantification of cellular protein levels using the Nano-Glo@HiBiT Lytic Detection System (Catalog No. N3050, Promega, Madison, WI USA). This assay utilizes the HiBiT tag on a protein of interest, which creates a luminescent signal in the presence of a complementing peptide and its substrate, the quantification of which 10 is proportional to the amount of HiBiT-tagged protein in the cell.
A375 cells were engineered to express HiBiT tagged BRAF V600E by CRISPR knock-in of the HiBiT tag to the endogenous BRAF V600E locus, followed by selection of a clonal population containing 15 the appropriate knock-in (referred to here as cell line A375.10). […] Cell culture flasks and 384-well microplates 20 were acquired from VWR (Radnor, PA, USA).
Plates were then spun briefly, and cells were incubated with compound at 37° C. for 2 hoursor 24 hours.
Following the appropriate treatment time, Nano-Glo® HiBiT Lytic Assay reagents were added to the cells per the manufacturer's instructions by adding 30ul of reagent per well, and 10 the luminescence signal was acquired by plate reader. Cells treated with DMSO only (no test compound treatment) were used as the negative control (N). Media only (no cells added) with Nano-Glo reagent addition was used as the background or positive control (P). The percent response of compound treated samples were calculated by subtracting out the background signal (P) and normalizing to the DMSO control (N) as follows. % Response=100 x (Treated Signal - Average (P))/(Average (N) - Average (P)).
Data were analyzed with a 4-parameter logistic fit to generate sigmoidal dose-response curves. […] The Emax, or maximum effect of each compound, represents the amount of residual protein remaining in the cell following compound treatment.
The experiment was conducted at least once for each compound. If the experiment was conducted multiple times, the data shown in the table is the average of the two or more experiments.

Row | SMILES | HiBIT-Degradation A375.10 BRAF 24 hours IP nM (24 hours) | DC50 [1] | Emax [2] | HiBIT-Degradation A375.10 BRAF 2 hours IP nM (2 hours) | DC50 [3] | Emax [4]
1 | CCN(C)S(=O)(=O)Nc1ccc(F)c(Oc2ccc3ncn([C@@H]4COC5(CCN(C(=O)CN6CCC(c7ccc(N8CCC(=O)NC8=O)cc7OS(C)(=O)=O)CC6)CC5)C4)c(=O)c3c2)c1C#N [drawing 1219] | *** (<= 1 μM is ***) | < 1000 nM | < 60% |  |  | 
2 | CCN(C)S(=O)(=O)Nc1ccc(F)c(Oc2ccc3ncn([C@@H]4COC5(CCN(C(=O)CN6CCC(c7ccc(OC8CCC(=O)NC8=O)cc7OS(C)(=O)=O)CC6)CC5)C4)c(=O)c3c2)c1C#N (stereo partly drawn) [drawing 1206] |  |  |  | ** (<10 μM and >1 μM is **) | > 10000 nM | 60 to 95%
3 | CCN(C)S(=O)(=O)Nc1ccc(F)c(Oc2ccc3ncn([C@H]4COC5(CCN(C(=O)CN6CCN(c7ccc(N8CCC(=O)NC8=O)cc7OS(=O)(=O)F)CC6)CC5)C4)c(=O)c3c2)c1C#N [drawing 1213] | *** (<= 1 μM is ***) | 1000 to 10000 nM | < 60% |  |  | 
4 | CCN(C)S(=O)(=O)Nc1ccc(F)c(Oc2ccc3ncn([C@H]4COC5(CCN(C(=O)CN6CCN(c7ccc(C8CCC(=O)NC8=O)cc7OS(=O)(=O)F)CC6)CC5)C4)c(=O)c3c2)c1C#N (stereo partly drawn) [drawing 1191] |  |  |  | *** (<= 1 μM is) | 1000 to 10000 nM | < 60%
5 | CCN(C)S(=O)(=O)Nc1ccc(F)c(Oc2ccc3ncn([C@@H]4COC5(CCN(C(=O)CN6CCN(c7ccc(N8CCC(=O)NC8=O)cc7OS(=O)(=O)F)CC6)CC5)C4)c(=O)c3c2)c1C#N [drawing 1229] | ** (<10 μM and >1 μM is **) | 1000 to 10000 nM | < 60% |  |  | 
6 | CCN(C)S(=O)(=O)Nc1ccc(F)c(Oc2ccc3ncn([C@@H]4COC5(CCN(C(=O)CN6CCC(c7ccc(N8CCC(=O)NC8=O)cc7OS(=O)(=O)F)CC6)CC5)C4)c(=O)c3c2)c1C#N [drawing 1192] |  |  |  | * (>=10 μM is *) | > 10000 nM | > 95%
7 | CCN(C)S(=O)(=O)Nc1ccc(F)c(Oc2ccc3ncn([C@@H]4COC5(CCN(C(=O)CN6CCC(c7ccc(OC8CCC(=O)NC8=O)cc7S(=O)(=O)F)CC6)CC5)C4)c(=O)c3c2)c1C#N (stereo partly drawn) [drawing 1221] | *** (<= 1 μM is ***) | < 1000 nM | < 60% |  |  | 
8 | CCN(C)S(=O)(=O)Nc1ccc(F)c(Oc2ccc3ncn([C@@H]4COC5(CCN(C(=O)CN6CCC(c7ccc(OC8CCC(=O)NC8=O)cc7OS(=O)(=O)F)CC6)CC5)C4)c(=O)c3c2)c1C#N (stereo partly drawn) [drawing 1201] |  |  |  | *** (<= 1 μM is) | 1000 to 10000 nM | 60 to 95%
9 | CCN(C)S(=O)(=O)Nc1ccc(F)c(Oc2ccc3ncn([C@@H]4COC5(CCN(C(=O)CN6CCC(c7ccc(C8CCC(=O)NC8=O)cc7OS(=O)(=O)F)CC6)CC5)C4)c(=O)c3c2)c1C#N (stereo partly drawn) [drawing 1189] |  |  |  | *** (<= 1 μM is) | 1000 to 10000 nM | 60 to 95%
10 | CCN(C)S(=O)(=O)Nc1ccc(F)c(Oc2ccc3ncn([C@H]4COC5(CCN(C(=O)CN6CCN(c7ccc(N8CCC(=O)NC8=O)cc7OS(=O)(=O)F)CC6)CC5)C4)c(=O)c3c2)c1C#N [drawing 1194] |  |  |  | * (>=10 μM is *) | > 10000 nM | > 95%
11 | CCN(C)S(=O)(=O)Nc1ccc(F)c(Oc2ccc3ncn([C@@H]4COC5(CCN(C(=O)CN6CCC(c7ccc(N8CCC(=O)NC8=O)cc7OS(=O)(=O)F)CC6)CC5)C4)c(=O)c3c2)c1C#N [drawing 1227] | ** (<10 μM and >1 μM is **) | 1000 to 10000 nM | < 60% |  |  | 
12 | CCN(C)S(=O)(=O)Nc1ccc(F)c(Oc2ccc3ncn([C@@H]4COC5(CCN(C(=O)CN6CCC(c7ccc(N8CCC(=O)NC8=O)cc7OS(C)(=O)=O)CC6)CC5)C4)c(=O)c3c2)c1C#N [drawing 1203] |  |  |  | *** (<= 1 μM is) | > 10000 nM | < 60%
